Assay results as given in patent US10660333B2, “Substituted 2-heterocyclylimidazolylcarboxamides as pesticides” (BAYER CROPSCIENCE AKTIENGESELLSCHAFT, priority 2016, dated 2020).
Like-named read-outs stand apart in the source and are kept apart here.

Columns and labels:
Myzus persicae [1] = assay: Myzus persicae - spray test; format: in vivo; conditions: for pest or weed control at 500 g/ha: Myzus persicae, foliar, 120 h, read-out: efficacy (aphids killed)
Protocol: Myzus persicae—Spray Test
To produce a suitable active ingredient formulation, 1 part by weight of active ingredient is dissolved with the specified parts by weight of solvent and made up to the desired concentration with water containing an emulsifier concentration of 1000 ppm. To produce further test concentrations, the formulation is diluted with emulsifier-containing water.
Discs of Chinese cabbage leaves (Brassica pekinensis) infested by all stages of the green peach aphid (Myzus persicae) are sprayed with an active ingredient formulation of the desired concentration.
(§1) After 5 days, the efficacy in % is determined. 100% means that all the aphids have been killed; 0% means that no aphids have been killed.

[2] = log P by HPLC on reversed-phase (C18) columns, OECD Guideline 117; format: physicochemical
Myzus persicae [3] = assay: Myzus persicae - oral test; format: in vivo; conditions: for pest or weed control at 4 ppm: Myzus persicae, 120 h, read-out: efficacy (aphids killed)
Protocol: To produce a suitable active ingredient formulation, 1 part by weight of active ingredient is dissolved with the specified parts by weight of solvent and made up to the desired concentration with water.
50 μl of the active ingredient formulation are transferred into microtitre plates and made up to a final volume of 200 μl with 150 μl of IPL41 insect medium (33%+15% sugar). Subsequently, the plates are sealed with parafilm, which a mixed population of green peach aphids (Myzus persicae) within a second microtitre plate is able to puncture and imbibe the solution.
as §1

[4] = 500 g/ha, Chinese cabbage leaf discs, after 5 days
[5] = HPLC RP C18, acidic range pH 2.7, 0.1% formic acid/acetonitrile
[6] = HPLC RP C18, neutral range pH 7.8, ammonium hydrogencarbonate/acetonitrile
[7] = reversed-phase (C18) HPLC column, HPLC RP C18, acidic range pH 2.7, 0.1% formic acid/acetonitrile, read-out: logP[a]
[8] = reversed-phase (C18) HPLC column, HPLC RP C18, neutral range pH 7.8, ammonium hydrogencarbonate/acetonitrile, read-out: logP[n]

logP[a] [2, 5]	logP[n] [2, 6]	SMILES	efficacy (aphids killed) (Myzus persicae [1]; [4]) [%]	efficacy (aphids killed) (Myzus persicae [3]; 4 ppm, oral, after 5 days) [%]	other results
2.09	2.21	CN(C(=O)c1cnc(C2=NOC(C3CCCC3)C2)n1C)c1cccnc1 (stereo not drawn) [Example I-1-38]			
1.65	1.85	CC(C)C1CC(c2ncc(C(=O)N(C)c3cccnc3)n2C)=NO1 (stereo not drawn) [Example I-1-37]			
	0.74	CN1CCN=C1c1ncc(C(=O)N(C)c2cccnc2)n1C [Example I-1-46]			
0.53	0.96	CC1=NOC(C)(c2ncc(C(=O)N(C)c3cccnc3)n2C)C1 (stereo not drawn) [Example I-1-31]	90	90	
0.78	1.12	CN(C)C(=O)C1CC(c2ncc(C(=O)N(C)c3cccnc3)n2C)=NO1 (stereo not drawn) [Example I-1-39]			

The remaining lines, values behind:

SMILES	logP[a] [2, 5]	logP[n] [2, 6]	efficacy (aphids killed) (Myzus persicae [1]; [4]) [%]	efficacy (aphids killed) (Myzus persicae [3]; 4 ppm, oral, after 5 days) [%]	other results
CN(C(=O)c1cnc(C2CC(c3ccccc3C#N)=NO2)n1C)c1cccnc1 (stereo not drawn) [Example I-1-18]	1.34	1.55	90	100	
CN(C(=O)c1cnc(C=O)n1C)c1cccnc1 [XIII-1-1, 2-Formyl-N,1-dimethyl-N-(pyridin-3-yl)-1H-imidazole-5-carboxamide]					chromatographic logP [2, 7]: 0.43; chromatographic logP [2, 8]: 0.6
CN(C(=O)c1cnc(C2CC(c3cccc(Cl)c3)=NO2)n1C)c1cccnc1 (stereo not drawn) [Example I-1-10]	1.88	2.10	100	100	
CN(C(=O)c1cnc(C2CC(c3cc(Cl)cc(Cl)c3)=NO2)n1C)c1cccnc1 (stereo not drawn) [Example I-1-17]	2.39	2.61	100	100	
CN(C(=O)c1cnc(C2=NOC(c3ccccn3)C2)n1C)c1cccnc1 (stereo not drawn) [Example I-1-42]	1.09	1.46			
CN(C(=O)c1cnc(C2CC(c3cc(Cl)ccc3Cl)=NO2)n1C)c1cccnc1 (stereo not drawn) [Example I-1-14]	2.13	2.32	90	100	
CN(C(=O)c1cnc(I)n1C)c1cccnc1 [VI-1-1, 2-Iodo-N,1-dimethyl-N-(pyridin-3-yl)-1H-imidazole-5-carboxamide]					chromatographic logP [2, 7]: 0.66; chromatographic logP [2, 8]: 0.97
CN(C(=O)c1cnc(C2CC(c3ccc(OC(F)(F)F)cc3)=NO2)n1C)c1cccnc1 (stereo not drawn) [Example I-1-33]	2.28	2.42	90		
CN(C(=O)c1cnc(C2=NOC(c3cccnc3)C2)n1C)c1cccnc1 (stereo not drawn) [Example I-1-43]	0.56	1.35			
CN(C(=O)c1cnc(C2CC(c3ccccc3Cl)=NO2)n1C)c1cccnc1 (stereo not drawn) [Example I-1-9]	1.69	1.95	100	100	
CN(C(=O)c1cnc(C2=NCCN2)n1C)c1cccnc1 [Example I-1-45, N,1-Dimethyl-N-(pyridin-3-yl)-4′,5′-dihydro-1H,1′H-2,2′-biimidazole-5-carboxamide]					chromatographic logP [2, 8]: 0.54
CN(C(=O)c1cnc(C=NO)n1C)c1cccnc1 [XVIII-1-1, 2-[(Hydroxyimino)methyl]-N,1-dimethyl-N-(pyridin-3-yl)-1H-imidazole-5-carboxamide]					chromatographic logP [2, 8]: 0.51
CN(C(=O)c1cnc(C2=NOC(c3ccncc3)C2)n1C)c1cccnc1 (stereo not drawn) [Example I-1-44]	0.45	1.34			
CN(C(=O)c1cnc(C2CC(c3ccc(C(F)(C(F)(F)F)C(F)(F)F)cc3)=NO2)n1C)c1cccnc1 (stereo not drawn) [Example I-1-35]	3.01	3.08	100	90	
CN(C(=O)c1cnc(C2CC(c3cccnc3)=NO2)n1C)c1cccnc1 (stereo not drawn) [Example I-1-27]	0.64	1.09	90	100	
CN(C(=O)c1cnc(C2CC(c3ccc(Cl)cc3Cl)=NO2)n1C)c1cccnc1 (stereo not drawn) [Example I-1-13]	2.23	2.41	100	100	
CN(C(=O)c1cnc(C2CC(c3ccc(Cl)c(Cl)c3)=NO2)n1C)c1cccnc1 (stereo not drawn) [Example I-1-16]	2.27	2.48	100	100	
CN(C(=O)c1cnc(C2CC(c3cccc(Cl)c3Cl)=NO2)n1C)c1cccnc1 (stereo not drawn) [Example I-1-12]	2.07	2.25	100	100	
CN(C(=O)c1cnc(C2CC(c3c(Cl)cccc3Cl)=NO2)n1C)c1cccnc1 (stereo not drawn) [Example I-1-15]	1.87	2.10	100	100	
CN(C(=O)c1cnc(C2=NOC(c3ccccc3)C2)n1C)c1cccnc1 (stereo not drawn) [Example I-1-40, N,1-Dimethyl-2-(5-phenyl-4,5-dihydro-1,2-oxazol-3-yl)-N-(pyridin-3-yl)-1H-imidazole-5-carboxamide]					pest or weed control at 500 g/ha (Myzus persicae [1]; [4]): 90%; chromatographic logP [2, 7]: 1.86; chromatographic logP [2, 8]: 1.97; pest or weed control at 4 ppm (Myzus persicae [3]; 4 ppm, oral, after 5 days): 90%
C=Cc1ncc(C(=O)N(C)c2cccnc2)n1C [VII-1-1, N,1-Dimethyl-N-(pyridin-3-yl)-2-vinyl-1H-imidazole-5-carboxamide]					chromatographic logP [2, 8]: 0.82
CN(C(=O)c1cnc(C2CC(c3ccc(Cl)cc3)=NO2)n1C)c1cccnc1 (stereo not drawn) [Example I-1-11]	1.97	2.12	100	100	
CN(C(=O)c1cnc(C2=CC(=O)OC2)n1C)c1cccnc1 [Example I-1-47, N,1-Dimethyl-2-(5-oxo-2,5-dihydrofuran-3-yl)-N-(pyridin-3-yl)-1H-imidazole-5-carboxamide]					pest or weed control at 500 g/ha (Myzus persicae [1]; in Brassica rapa): 90%; chromatographic logP [2, 7]: 0.46; chromatographic logP [2, 8]: 0.72; pest or weed control at 4 ppm (Myzus persicae [3]; po): 100%
CCOC(=O)C1=NOC(c2ncc(C(=O)N(C)c3cccnc3)n2C)C1 (stereo not drawn) [Example I-1-5, Ethyl 5-{1-methyl-5-[methyl(pyridin-3-yl)carbamoyl]-1H-imidazol-2-yl}-4,5-dihydro-1,2-oxazole-3-carboxylate]					pest or weed control at 500 g/ha (Myzus persicae [1]; [4]): 100%; chromatographic logP [2, 7]: 1.04; chromatographic logP [2, 8]: 1.32; pest or weed control at 4 ppm (Myzus persicae [3]; 4 ppm, oral, after 5 days): 100%
CN(C(=O)c1cnc(C2CC(c3c(Cl)cc(C(F)(F)F)cc3Cl)=NO2)n1C)c1cccnc1 (stereo not drawn) [Example I-1-34]	2.66	2.75	90	100	
CN(C(=O)c1cnc(C#N)n1C)c1cccnc1 [XXIII-1-1, 2-Cyano-N,1-dimethyl-N-(pyridin-3-yl)-1H-imidazole-5-carboxamide]					chromatographic logP [2, 7]: 0.63; chromatographic logP [2, 8]: 0.85
N#Cc1cccc(C=NO)c1 [IX-19, 3-(Hydroxyimino)methylbenzonitrile]					chromatographic logP ([2]; HPLC RP C18, acidic range pH 2.7, 0.1% formic acid/acetonitrile, read-out: logP[a]): 1.2
CN(C(=O)c1cnc(C2=NOC(c3ccc(C(F)(F)F)cc3)C2)n1C)c1cccnc1 (stereo not drawn) [Example I-1-41]	2.49	2.60			
COc1ccc(C2=NOC(c3ncc(C(=O)N(C)c4cccnc4)n3C)C2)cc1 (stereo not drawn) [Example I-1-25]	1.46	1.74		100	
